For assay [1], the target named is T1, cPLA2 (Homo sapiens, UniProt P47712).
T1 sequence (P47712 1-749): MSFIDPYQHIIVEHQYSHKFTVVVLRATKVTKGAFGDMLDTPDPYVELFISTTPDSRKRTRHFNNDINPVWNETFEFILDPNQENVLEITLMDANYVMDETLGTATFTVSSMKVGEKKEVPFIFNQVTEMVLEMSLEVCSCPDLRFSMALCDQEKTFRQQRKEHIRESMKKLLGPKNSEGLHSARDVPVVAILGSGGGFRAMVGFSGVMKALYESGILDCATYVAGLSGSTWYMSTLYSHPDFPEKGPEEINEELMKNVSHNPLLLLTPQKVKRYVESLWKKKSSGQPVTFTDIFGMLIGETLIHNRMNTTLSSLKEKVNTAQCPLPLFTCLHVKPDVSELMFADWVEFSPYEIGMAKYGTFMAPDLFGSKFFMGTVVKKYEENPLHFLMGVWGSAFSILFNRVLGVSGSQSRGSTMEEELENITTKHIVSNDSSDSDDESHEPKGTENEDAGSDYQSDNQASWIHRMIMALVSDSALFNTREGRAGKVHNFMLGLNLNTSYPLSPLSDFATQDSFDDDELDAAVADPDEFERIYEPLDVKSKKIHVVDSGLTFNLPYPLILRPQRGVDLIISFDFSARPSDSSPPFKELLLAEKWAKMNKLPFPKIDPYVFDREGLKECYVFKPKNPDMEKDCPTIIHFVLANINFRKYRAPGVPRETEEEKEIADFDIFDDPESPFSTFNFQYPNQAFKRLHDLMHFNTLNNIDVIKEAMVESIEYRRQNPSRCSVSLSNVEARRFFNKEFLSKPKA
Kind of assay: Activity assay of Example 136 (Table VIII; sub-assay not stated). It counts as biochemical. The following applies: for IC50: concentration paired with 50 percent inhibition, read-out: CONCENTRATION (micromolar) @ PERCENT INHIBITION 50. As for the experimental part:
Activity data for the compounds of Examples 88-135 are reported in Table VIII (assay described in Example 136).
1-palmitoyl-2-V^14C] arachidonyl phosphotidylcholine (58 mCi/mmol) (final concentration 6 μM) and 1,2-dioleyolglycerol (final concentration 3 μM) were mixed and dried under a stream of nitrogen. To the lipids was added 50 mM Hepes pH 7.5 (2×final concentration of lipids) and the suspension was sonicated for 3 min. at 4° C. To the suspension was added 50 mM Hepes pH 7.5, 300 mM NaCl, 2 mM DTT, 2 mM CaCl2 and 2 mg/ml bovine serum albumin (BSA) (Sigma A7511) (1.2×final concentration of lipids). A typical assay consisted of the lipid mixture (85 μl) to which was added consecutively, the inhibitor (5 μl in DMSO) and cPLA2, 10 ng for an automated system or 1 ng for a manual assay, in 10 μl of the BSA buffer. This assay was conducted by either the manual assay or automated assay protocol described below.
1-[^14C]-palmitoyl-2-hydroxyphosphotidyl-choline (57 mCi/mmol) (final concentration 4.4 μM) was dried under a stream of nitrogen. The lipid was resuspended by vortexing 80 mM Hepes pH 7.5, 1 mM EDTA (1.2×final concentration). A typical assay consisted of lipid suspension (85 μl) to which was added consecutively the inhibitor (5 μl in DMSO) and cPLA2, 200 ng in 80 mM Hepes pH 7.5, 2 mM DTT and […]. This assay was conducted by either the manual assay or automated assay protocol described below.
RBL-2H3 cells were routinely cultured as 37° C. in a 5% CO2 atmosphere in minimal essential medium containing nonessential amino acids and 12% fetal calf serum. The day before the experiment, cells were seeded into spinner flasks at 3×10^5 cells/ml and 100 ng/ml DNP specific-IgE was added. After 20 hrs, the cells were harvested by centrifugation and washed once in serum-free minimal essential media, and resuspended to 2×10^6 cells/ml in serum free media. The cells were then preincubated with either inhibitor in DMSO (1% v/v) or DMSO (1% v/v) for 15 min at 37° C. followed by stimulation with DNP-BSA (300 ng/ml). After 6 min, the cells were removed by centrifugation, and the supernatant was assayed for PGD2 content in accordance with known methods.
(§1) 7-hydroxycoumarinyl 6-heptenoate was used as a monomeric substrate for cPLA2 as reported previously (Huang, Z. et al., 1994, Analytical Biochemistry 222, 110-115). Inhibitors were mixed with 200 μL assay buffer (80 mM Hepes, pH 7.5, 1 mM EDTA) containing 60 μM 7-hydroxycoumarinyl 6-heptenoate. The reaction was initiated by adding 4 μg cPLA2 in 50 μL assay buffer. Hydrolysis of the 7-hydroxycoumarinyl 6-heptenoate ester was monitored in a fluorometer by exciting at 360 nm and monitoring emission at 460 nm. Enzyme activity is proportional to the increasein emission at 460 nm per minute. In the presence of a cPLA2 inhibitor, the rate of increase is less.

The test system of assay [2] is carrageenan-induced footpad edema. Kind of assay: Rat carrageenan-induced footpad edema test. Type of assay: in vivo. The following applies: iv, 1 mg/ml, 5 ml/kg, male Sprague Dawley rats, footpad volume 3 hours after carrageenan, read-out: % inhibition of rat carrageenan-induced footpad edema. As for the experimental part:
Compounds of the present invention were also tested for in vivo activity in a rat paw edema test according to the procedure described in Example 89.
Rat Carrageenan-Induced Footpad Edema Test
Each compound was suspended in 0.3 ml absolute ethanol, 0.1 ml Tween-80 and 2.0 ml Dulbecco's PBS (without calcium or magnesium). To this mixture, 0.1 ml 1N NaOH was added. After solution was complete, additional amounts of PBS were added to adjust the concentration to 1 mg/ml. All comounds remained in solution. Compounds were administered i.v. in a volumne of 5 ml/kg to male Sprague Dawley rats at the same time that edema was induced by injection of 0.05 ml of 1% Type IV carrageenan into the hind footpad. Footpad volume was measured before dosing with compound and 3 hours after dosing with carageenan.
(In general: Carrageenan injected into the paw causes an acute inflammation.)

Assay [3] deals with T1, cPLA2. Kind of assay: Coumarine assay (7-hydroxycoumarinyl 6-heptenoate hydrolysis). It counts as biochemical. As for the experimental part: as §1
Assay [4] concerns the target T1, cPLA2. Kind of assay: Soluble substrate assay (LysoPC). Type of assay: biochemical. The procedure:
(b) Soluble Substrate Assay (LysoPC)
The lipid was resuspended by vortexing 80 mM Hepes pH 7.5, 1 mM EDTA (1.2×final concentration). A typical assay consisted of lipid suspension (85 μl) to which was added consecutively the inhibitor (5 μl in DMSO) and cPLA2, 200 ng in 80 mM Hepes pH 7.5, 2 mM DTT and […]. This assay was conducted by either the manual assay or automated assay protocol described below.

The mark [5] stands for this setting: 60 μM 7-hydroxycoumarinyl 6-heptenoate, read-out: IC50 (μM) Coumarine.
[6] abbreviates: NA = inhibitory activity not detected, read-out: IC50 (μM) Lyso PC.

Where “and” joins values, the source holds several entries; their conditions need not be identical. Equal entries are not always repeated.

For the compound `O=C(O)c1cc2cc(-c3ccccc3)ccc2n1Cc1ccccc1` [Example 113, 1-Benzyl-5-phenyl-1H-indole-2-carboxylic Acid], the IC50 on cPLA2 [1] turned out to be 170 µM.
With `O=C1NC(=O)/C(=C\c2cc3cc(OCc4ccccc4)ccc3n2Cc2ccc(Cc3ccccc3)cc2)S1` [Example 93, 5-{(E)-[1-(4-Benzylbenzyl)-5-(benzyloxy)-1H-indol-2-yl]methylidene}-1,3-thiazolane-2,4-dione], the “PERCENT INHIBITION @ CONCENTRATION 12.5 micromolar” value on cPLA2 [1] (12.5 micromolar) stood at 55%. In addition, the IC50 on cPLA2 [1] was 12.5 µM.
Consider `O=C(O)c1cc2cc(-c3cc4ccccc4o3)ccc2n1Cc1ccccc1` [Example 110, 5-(1-Benzofuran-2-yl)-1-benzyl-1H-indole-2-carboxylic Acid], for which, at cPLA2 [1], the IC50 amounted to 50 µM.
As for `O=C(O)c1ccc(CN2C(=O)/C(=C\c3cc4cc(OCc5ccccc5)ccc4n3Cc3ccc(C(F)(F)F)cc3C(F)(F)F)SC2=S)cc1` [Example 107, 4-{[5-((E)-{5-(Benzyloxy)-1-[2,4-bis(trifluoromethyl)benzyl]-1H-indol-2-yl}methylidene)-4-oxo-2-thioxo-1,3-thiazolan-3-yl]methyl}benzoic Acid], the IC50 on cPLA2 [1] amounted to 3.8 µM.
Turning to `COc1cccc(-c2ccc3c(c2)cc(C(=O)O)n3Cc2ccccc2)c1` [Example 112, 1-Benzyl-5-(3-methoxyphenyl)-1H-indole-2-carboxylic Acid], the “PERCENT INHIBITION @ CONCENTRATION 25 micromolar” value on cPLA2 [1] (25 micromolar) is given as 32%. The “PERCENT INHIBITION @ CONCENTRATION 50 micromolar” value on cPLA2 [1] came to 46%.
Take `CC(=O)c1c(CSc2ccccc2C(=O)O)n(Cc2ccc(C(=O)c3nc4ccccc4s3)cc2)c2ccc(OCc3ccccc3)cc12` [Example 134]: the IC50 at cPLA2 [1] worked out at 3.5 µM.
`O=C(O)CN1C(=O)S/C(=C/c2cc3cc(OCc4ccccc4)ccc3n2Cc2ccc(COc3cc(C(F)(F)F)cc(C(F)(F)F)c3)cc2)C1=O` [Example 96, 2-(5-{(E)-[5-(Benzyloxy)-1-(4-{[3,5-bis(trifluoromethyl)phenoxy]methyl}benzyl)-1H-indol-2-yl]methylidene}-2,4-dioxo-1,3-thiazolan-3-yl)acetic Acid]: the IC50 at cPLA2 [1] was found to be 5 µM.
With `CC(=O)c1c(CSCC(=O)O)n(Cc2ccc(C(=O)c3nc4ccccc4s3)cc2)c2ccc(OCc3ccccc3)cc12` [Example 133], the IC50 on cPLA2 [1] was determined as 8.5 µM.
For the compound `O=C(O)c1ccc(CN2C(=O)S/C(=C/c3cc4cc(OCc5ccccc5)ccc4n3Cc3ccc(Cl)cc3)C2=O)cc1` [Example 97, 4-[(5-{(E)-[5-(Benzyloxy)-1-(4-chlorobenzyl)-1H-indol-2yl]methylidene}2,4-dioxo-1,3-thiazolan-3-yl)methyl]benzoic Acid], the IC50 at cPLA2 [1] worked out at 4.5 µM.
Regarding `O=C1NC(=S)S/C1=C/c1cc2cc(OCc3ccccc3)ccc2n1Cc1ccc(C(F)(F)F)cc1C(F)(F)F` [Example 101, 5-((E)-{5-(Benzyloxy)-1-[2,4-bis(trifluoromethyl)benzyl]-1H-indol-2-yl}methylidene)-2-thioxo-1,3-thiazolan-4-one], the IC50 on cPLA2 [1] turned out to be 10 µM.
On to `O=C(O)c1ccc(CN2C(=O)S/C(=C/c3cc4cc(OCc5ccccc5)ccc4n3Cc3ccc(COc4cc(C(F)(F)F)cc(C(F)(F)F)c4)cc3)C2=O)cc1` [Example 88, 4-[(5-{(E)[5-(Benzyloxy)-1-(4-{[3,5-bis(trifluoromethyl)phenoxyl]methyl}benzyl)-1H-indol-2-yl]methylidene}-2,4-dioxo-1,3-thiazolan-3-yl)methyl]benzoic Acid], for which, at cPLA2 [1], the IC50 is 3 µM.
`O=C(O)c1ccccc1SCC1Cc2cc(OCc3ccccc3)ccc2N1Cc1ccc2ccccc2c1` (centres unmarked) [Example 76]: the inhibition in vivo at 1000 µg/mL, 5 mg/kg in assay [2] was 8.2%. Moreover, the IC50 on cPLA2 [3] (setting [5]) came out at 4.5 µM.
Consider `COc1ccc(C(=O)O)cc1NC(=O)CSCC1Cc2cc(OCc3ccccc3)ccc2N1C(=O)COc1ccc(Cc2ccccc2)cc1` (centres unmarked) [Example 60], for which the IC50 on cPLA2 [4] (setting [6]) was 4.6 µM; at cPLA2 [3] (setting [5]), over 30 µM.
Take `CC(=O)c1c(COc2ccc(C(=O)O)cc2)n(Cc2ccc(C(=O)c3nc4ccccc4s3)cc2)c2ccc(OCc3ccccc3)cc12` [Example 135]: on cPLA2 [1], the IC50 was determined as 9 µM.
Turning to `O=C(O)c1cc(NC(=O)c2cc3cc(OCc4ccccc4)ccc3n2Cc2ccccc2)cc(C(=O)O)c1` [Example 123, 5-({[1-Benzyl-5-(benzyloxy)-1H-indol-2-yl]carbonyl}amino)isophthalic Acid], the “PERCENT INHIBITION @ CONCENTRATION 50 micromolar” value on cPLA2 [1] is 31% and 25%.
As for `O=C(O)c1cccc(NC(=O)c2cc3cc(OCc4ccccc4)ccc3n2Cc2ccccc2)c1` [Example 5, 3-(2-(1-Benzyl-5-benzyloxy)indolecarboxamido)benzoic Acid], the IC50 at cPLA2 [4] stood at 4.3 µM; at cPLA2 [3], 52 µM.
`O=C(O)CSCC1Cc2cc(OCc3ccccc3)ccc2N1C(=O)COc1cc(C(F)(F)F)cc(C(F)(F)F)c1` (centres unmarked) [Example 37, 2-(5-Benzyloxy-1-(3,5-bis(trifluoromethyl)phenoxyacetyl)indolinyl)methylthioacetic Acid]: the IC50 on cPLA2 [4] (setting [6]) is 7.6 µM; on cPLA2 [3] (setting [5]), over 30 µM.
`CN(C)C(=O)c1cc(NC(=O)CSCC2Cc3cc(OCc4ccccc4)ccc3N2C(=O)COc2cc(C(F)(F)F)cc(C(F)(F)F)c2)cc(C(=O)O)c1` (centres unmarked) [Example 39]: the figures for the IC50 on cPLA2 [4] (setting [6]) and on cPLA2 [3] (setting [5]) were 4.3 µM and 18 µM, respectively.
As to `O=C(O)c1cc2cc(-c3ccc(F)cc3)ccc2n1Cc1ccccc1` [Example 111, 1-Benzyl-5-(4-fluorophenyl)-1H-indole-2-carboxylic Acid], the IC50 on cPLA2 [1] worked out at 13 µM.
Still for that read-out and setting: as for `O=C(O)/C=C/c1cc2cc(OCc3ccccc3)ccc2n1Cc1ccc(C(F)(F)F)cc1C(F)(F)F` [Example 125], the figure is 23 µM.
`CCC(C)(C)c1ccc(CCCCn2c(C(=O)Nc3cc(C(=O)O)ccc3OC)cc3cc(OCc4ccccc4)ccc32)c(C(C)(C)CC)c1` [Example 6]: the figures for the IC50 against cPLA2 [4] and against cPLA2 [3] were 2 µM and 6 µM, respectively.
